For 15 compounds, Kd and IC50 results are on record in US20250059188A1, “ARYLSULPHONAMIDE COMPOUNDS” (Anaxis Pharma Pty Ltd, priority 2021, published 2025).

For experiment [1], the target named is human MLKL (full length) (Homo sapiens (Human), UniProt Q8NB16). Kind of experiment: KINOMEscan binding assay, human MLKL (full length). To be noted: equilibrium dissociation constant. A digest of the protocol:
(§1)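 In this assay, compounds displace DNA- or phage-tagged kinase from an immobilized ligand, and eluted kinase is quantified by qPCR.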

The subject of experiment [2] is U937 cells. Kind of experiment: Counter screen: U937 cell viability without TSQ cocktail (off-target effect). Further details: species or system human. As to conditions: Homo sapiens, U-937, compound without TSQ cocktail, read-out: Off-target effect (IC50 cell-based assay). A digest of the protocol:
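U937 cells (20,000/well) exposed to compound (10-point 1:3 titration from 36 μM, 0.3% DMSO) without TSQ cocktail for 48 h at 37 °C/5% CO2. Viability read as ATP by CellTiter-Glo luminescence; IC50 from 4-parameter logistic fit.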
A general note: Counterscreens check selectivity or assay interference.

Experiment [3] addresses human RIPK1 (Homo sapiens (Human), UniProt Q13546). Put plainly: KINOMEscan binding assay, human RIPK1. As to conditions: equilibrium dissociation constant. Summed up: as §1
Experiment [4] relates to U937 human histiocytic leukemia cell line. Kind of experiment: Inhibition of TSQ induced necroptosis in U937 cells (CellTitre-Glo). To be noted: Homo sapiens, U-937, TSQ cocktail (TNF, Smac mimetic, Q-VD-OPh), 48 hours, read-out: Inhibition of TSQ-induced necroptosis (IC50 cell-based assay). Summed up: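 U937 cells (20000/well) treated with compound (10-point, 1:3 from 36 μM, 0.3% DMSO) plus TSQ cocktail (hTNF-Fc 100 ng/ml, Smac mimetic 500 nM, Q-VD-OPh 10 μM), 48 h at 37 °C. Viability by CellTiter-Glo luminescence; IC50 from 4-parameter logistic fit. Counter screen: same cells without TSQ.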

The target in experiment [5] is human RIPK3 (Homo sapiens (Human), UniProt Q9Y572). Put plainly: KINOMEscan binding assay, human RIPK3. To be noted: equilibrium dissociation constant. Summed up: as §1

A word on the Kd: it is a measure of binding affinity in units of concentration. High values mean lower affinity, low ones higher affinity. A word on the IC50: it is the midpoint of a concentration-inhibition curve.

human RIPK1, sequence (Q13546 whole entry): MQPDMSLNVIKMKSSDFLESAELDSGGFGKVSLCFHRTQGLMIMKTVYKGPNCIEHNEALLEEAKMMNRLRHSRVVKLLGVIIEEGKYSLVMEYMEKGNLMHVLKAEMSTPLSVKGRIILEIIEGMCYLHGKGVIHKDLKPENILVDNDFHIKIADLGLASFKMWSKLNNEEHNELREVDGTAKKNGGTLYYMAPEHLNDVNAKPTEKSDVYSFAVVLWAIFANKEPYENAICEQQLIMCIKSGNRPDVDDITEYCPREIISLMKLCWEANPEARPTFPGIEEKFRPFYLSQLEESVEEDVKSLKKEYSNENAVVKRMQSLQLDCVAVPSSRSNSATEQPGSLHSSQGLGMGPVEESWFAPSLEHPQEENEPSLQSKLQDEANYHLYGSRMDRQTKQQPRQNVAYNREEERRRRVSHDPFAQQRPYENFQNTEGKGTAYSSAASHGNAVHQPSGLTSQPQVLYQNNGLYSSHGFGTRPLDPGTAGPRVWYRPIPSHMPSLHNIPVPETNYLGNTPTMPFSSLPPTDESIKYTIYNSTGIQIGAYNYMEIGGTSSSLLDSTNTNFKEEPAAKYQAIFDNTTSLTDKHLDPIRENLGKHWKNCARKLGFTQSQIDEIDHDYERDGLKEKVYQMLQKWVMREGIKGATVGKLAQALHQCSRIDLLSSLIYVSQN
human MLKL (full length), sequence (Q8NB16 whole entry): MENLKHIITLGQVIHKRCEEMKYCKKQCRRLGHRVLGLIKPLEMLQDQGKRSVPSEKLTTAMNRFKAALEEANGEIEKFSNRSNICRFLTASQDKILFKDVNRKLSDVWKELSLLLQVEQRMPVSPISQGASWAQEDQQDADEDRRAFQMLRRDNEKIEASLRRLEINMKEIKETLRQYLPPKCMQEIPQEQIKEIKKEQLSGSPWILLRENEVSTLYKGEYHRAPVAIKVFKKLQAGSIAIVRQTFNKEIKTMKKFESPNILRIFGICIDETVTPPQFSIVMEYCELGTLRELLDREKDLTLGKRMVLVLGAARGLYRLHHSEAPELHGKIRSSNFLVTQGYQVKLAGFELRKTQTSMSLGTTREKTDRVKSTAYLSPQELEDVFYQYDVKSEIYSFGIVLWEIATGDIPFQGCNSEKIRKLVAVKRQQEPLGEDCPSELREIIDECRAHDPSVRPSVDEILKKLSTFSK
human RIPK3, sequence (Q9Y572 whole entry): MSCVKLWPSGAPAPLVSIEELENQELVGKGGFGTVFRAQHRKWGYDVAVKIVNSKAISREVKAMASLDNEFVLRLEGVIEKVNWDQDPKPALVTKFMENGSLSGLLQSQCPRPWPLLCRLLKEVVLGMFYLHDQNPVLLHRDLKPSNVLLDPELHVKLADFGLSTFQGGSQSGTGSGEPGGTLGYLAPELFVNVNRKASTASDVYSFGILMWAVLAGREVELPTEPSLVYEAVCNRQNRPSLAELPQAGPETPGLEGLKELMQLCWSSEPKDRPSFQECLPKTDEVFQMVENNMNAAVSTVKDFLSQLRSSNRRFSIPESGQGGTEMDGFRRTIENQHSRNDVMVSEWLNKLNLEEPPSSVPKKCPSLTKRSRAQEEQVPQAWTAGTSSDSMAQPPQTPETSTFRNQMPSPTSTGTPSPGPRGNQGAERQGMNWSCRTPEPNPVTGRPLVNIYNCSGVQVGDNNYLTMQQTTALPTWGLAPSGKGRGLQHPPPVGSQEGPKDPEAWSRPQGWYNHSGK

Consider `C[C@H](Oc1cc(-c2nn(C)c3c(-c4cnn(C5(C#N)CC5)c4)cnc(N)c23)ccc1NS(=O)(=O)C(F)F)c1ccc(F)cc1` [Compound 96, (S)-N-(4-(4-amino-7-(1-(1-cyanocyclopropyl)-1H-pyrazol-4-yl)-1-methyl-1H-pyrazolo[4,3-c]pyridin-3-yl)-2-(1-(4-fluorophenyl)ethoxy)phenyl)-1,1-difluoromethanesulfonamide], for which the Kd was below 0.001 µM in experiment [1], above 10 µM in experiment [3] and above 10 µM in experiment [5]. Besides, the results for the IC50 in experiment [2] and in experiment [4] were above 10 µM and 0.01 to 1 µM, respectively.

With `C[C@H](Oc1cc(-c2nn(C)c3c(-c4cnn(CCN(C)C)c4)cnc(N)c23)ccc1NS(=O)(=O)C(F)F)c1ccc(F)cc1` [Compound 100, (S)-N-(4-(4-amino-7-(1-(2-(dimethylamino)ethyl)-1H-pyrazol-4-yl)-1-methyl-1H-pyrazolo[4,3-c]pyridin-3-yl)-2-(1-(4-fluorophenyl)ethoxy)phenyl)-1,1-difluoromethanesulfonamide], the values for the Kd in experiment [1], in experiment [3] and in experiment [5] were below 0.001 µM, above 10 µM and above 10 µM, respectively. For the same compound, the results for the IC50 in experiment [2] and in experiment [4] were above 10 µM and below 0.01 µM, respectively.

With `CC(C)N(C)CC(C)n1cc(-c2cnc(N)c3c(-c4ccc(NS(=O)(=O)C(F)F)c(O[C@@H](C)c5ccc(F)cc5)c4)nn(C)c23)cn1` (stereo partly drawn) [Compound 101, N-(4-(4-amino-7-(1-(1-(isopropyl(methyl)amino)propan-2-yl)-1H-pyrazol-4-yl)-1-methyl-1H-pyrazolo[4,3-c]pyridin-3-yl)-2-((S)-1-(4-fluorophenyl)ethoxy)phenyl)-1,1-difluoromethanesulfonamide], the figures for the Kd in experiment [1], in experiment [3] and in experiment [5] were below 0.001 µM, above 10 µM and above 10 µM, respectively. Moreover, the IC50 in experiment [2] was above 10 µM; in experiment [4] it was below 0.01 µM.

For `C[C@H](Oc1cc(-c2nn(C)c3c(-c4cnc(N5CCN(C)CC5)nc4)cnc(N)c23)ccc1NS(=O)(=O)C(F)F)c1ccc(F)cc1` [Compound 105, (S)-N-(4-(4-amino-1-methyl-7-(2-(4-methylpiperazin-1-yl)pyrimidin-5-yl)-1H-pyrazolo[4,3-c]pyridin-3-yl)-2-(1-(4-fluorophenyl)ethoxy)phenyl)-1,1-difluoromethanesulfonamide], the Kd in experiment [1] is below 0.001 µM; in experiment [3], above 10 µM; in experiment [5], above 10 µM. For the same compound, the IC50 in experiment [2] is above 10 µM; in experiment [4] it was 0.01 to 1 µM.

On to `C[C@H](Oc1cc(-c2nn(C)c3c(-c4cnc(N(C)C)nc4)cnc(N)c23)ccc1NS(=O)(=O)C(F)F)c1ccc(F)cc1` [Compound 106, (S)-N-(4-(4-amino-7-(2-(dimethylamino)pyrimidin-5-yl)-1-methyl-1H-pyrazolo[4,3-c]pyridin-3-yl)-2-(1-(4-fluorophenyl)ethoxy)phenyl)-1,1-difluoromethanesulfonamide], for which the results for the Kd in experiment [1], in experiment [3] and in experiment [5] were 0.001 to 0.1 µM, above 10 µM and above 10 µM, respectively. In addition, the IC50 in experiment [2] is above 10 µM; in experiment [4] it was 0.01 to 1 µM.

On to `C[C@H](Oc1cc(-c2nn(C)c3c(-c4ccc(N5CCN(C)CC5)nc4)cnc(N)c23)ccc1NS(=O)(=O)C(F)F)c1ccc(F)cc1` [Compound 107, (S)-N-(4-(4-amino-1-methyl-7-(6-(4-methylpiperazin-1-yl)pyridin-3-yl)-1H-pyrazolo[4,3-c]pyridin-3-yl)-2-(1-(4-fluorophenyl)ethoxy)phenyl)-1,1-difluoromethanesulfonamide], for which the Kd in experiment [1] is below 0.001 µM; in experiment [3] it was above 10 µM; in experiment [5], above 10 µM. The IC50 in experiment [2] was above 10 µM; in experiment [4] it was 0.01 to 1 µM.

With `C[C@H](Oc1cc(-c2nn(C)c3c(-c4cnc(N)nc4)cnc(N)c23)ccc1NS(=O)(=O)C(F)F)c1ccc(F)cc1` [Compound 108, (S)-N-(4-(4-amino-7-(2-aminopyrimidin-5-yl)-1-methyl-1H-pyrazolo[4,3-c]pyridin-3-yl)-2-(1-(4-fluorophenyl)ethoxy)phenyl)-1,1-difluoromethanesulfonamide], the Kd in experiment [1] is below 0.001 µM; in experiment [3] it was above 10 µM; in experiment [5], above 10 µM. For the same compound, the IC50 in experiment [2] is above 10 µM; in experiment [4] it was 0.01 to 1 µM.

For the compound `COC[C@H](Oc1cc(-c2nn(C)c3c(-c4cnn(C5CCOCC5)c4)cnc(N)c23)ccc1NS(=O)(=O)C(F)F)c1ccc(F)cc1` [Compound 111, (R)—N-(4-(4-amino-1-methyl-7-(1-(tetrahydro-2H-pyran-4-yl)-1H-pyrazol-4-yl)-1H-pyrazolo[4,3-c]pyridin-3-yl)-2-(1-(4-fluorophenyl)-2-methoxyethoxy)phenyl)-1,1-difluoromethanesulfonamide], the Kd in experiment [1] was 0.001 to 0.1 µM; in experiment [3] it was above 10 µM; in experiment [5], above 10 µM. For the same compound, the values for the IC50 in experiment [2] and in experiment [4] were above 10 µM and 0.01 to 1 µM, respectively.

As for `C[C@H](Oc1cc(-c2nn(C)c3c(-c4ccc(N5CCOCC5)nc4)cnc(N)c23)ccc1NS(=O)(=O)C(F)F)c1ccc(F)cc1` [Compound 115, (S)-N-(4-(4-amino-1-methyl-7-(6-morpholinopyridin-3-yl)-1H-pyrazolo[4,3-c]pyridin-3-yl)-2-(1-(4-fluorophenyl)ethoxy)phenyl)-1,1-difluoromethanesulfonamide], the Kd in experiment [1] was 0.001 to 0.1 µM; in experiment [3], above 10 µM; in experiment [5], above 10 µM. The IC50 was above 10 µM in experiment [2] and 0.01 to 1 µM in experiment [4].

In the case of `C[C@H](Oc1cc(-c2nn(C)c3c(-c4ccc(C(F)(F)F)nc4)cnc(N)c23)ccc1NS(=O)(=O)C(F)F)c1ccc(F)cc1` [Compound 117, (S)-N-(4-(4-amino-1-methyl-7-(6-(trifluoromethyl)pyridin-3-yl)-1H-pyrazolo[4,3-c]pyridin-3-yl)-2-(1-(4-fluorophenyl)ethoxy)phenyl)-1,1-difluoromethanesulfonamide], the Kd in experiment [1] was 0.001 to 0.1 µM; in experiment [3], above 10 µM; in experiment [5], above 10 µM. Moreover, the results for the IC50 in experiment [2] and in experiment [4] were above 10 µM and 0.01 to 1 µM, respectively.

In the case of `C[C@H](Oc1cc(-c2nn(C)c3c(-c4cnn(C5CCOCC5)c4)cnc(N)c23)ccc1NS(C)(=O)=O)c1ccc(F)cc1` [Compound 119, (S)-N-(4-(4-amino-1-methyl-7-(1-(tetrahydro-2H-pyran-4-yl)-1H-pyrazol-4-yl)-1H-pyrazolo[4,3-c]pyridin-3-yl)-2-(1-(4-fluorophenyl)ethoxy)phenyl)methanesulfonamide], the Kd in experiment [1] was 0.001 to 0.1 µM; in experiment [3], above 10 µM; in experiment [5], above 10 µM. Besides, the IC50 in experiment [2] was above 10 µM; in experiment [4], 0.01 to 1 µM.

Turning to `C[C@H](Oc1cc(-c2nn(C)c3c(-c4cnn(C(F)F)c4)cnc(N)c23)ccc1NS(=O)(=O)C(F)F)c1ccc(F)cc1` [Compound 123, (S)-N-(4-(4-amino-7-(1-(difluoromethyl)-1H-pyrazol-4-yl)-1-methyl-1H-pyrazolo[4,3-c]pyridin-3-yl)-2-(1-(4-fluorophenyl)ethoxy)phenyl)-1,1-difluoromethanesulfonamide], the Kd is below 0.001 µM in experiment [1], above 10 µM in experiment [3] and above 10 µM in experiment [5]. The IC50 in experiment [2] is above 10 µM; in experiment [4], below 0.01 µM.

In the case of `C[C@H](Oc1cc(-c2nn(C)c3c(-c4ccn(C)c4)cnc(N)c23)ccc1NS(=O)(=O)C(F)F)c1ccc(F)cc1` [Compound 126, (S)-N-(4-(4-amino-1-methyl-7-(1-methyl-1H-pyrrol-3-yl)-1H-pyrazolo[4,3-c]pyridin-3-yl)-2-(1-(4-fluorophenyl)ethoxy)phenyl)-1,1-difluoromethanesulfonamide], the Kd is 0.001 to 0.1 µM in experiment [1], above 10 µM in experiment [3] and above 10 µM in experiment [5]. The values for the IC50 in experiment [2] and in experiment [4] were above 10 µM and 0.01 to 1 µM, respectively.

Regarding `C[C@H](Oc1cc(-c2nn(C)c3c(C#CC4CCN(CC(F)(F)F)CC4)cnc(N)c23)ccc1NS(=O)(=O)C(F)F)c1ccc(F)cc1` [Compound 128, (S)-N-(4-(4-amino-1-methyl-7-((1-(2,2,2-trifluoroethyl)piperidin-4-yl)ethynyl)-1H-pyrazolo[4,3-c]pyridin-3-yl)-2-(1-(4-fluorophenyl)ethoxy)phenyl)-1,1-difluoromethanesulfonamide], the Kd is 0.001 to 0.1 µM in experiment [1], above 10 µM in experiment [3] and above 10 µM in experiment [5]. In addition, the figures for the IC50 in experiment [2] and in experiment [4] were above 10 µM and 0.01 to 1 µM, respectively.

`C[C@H](Oc1cc(-c2nn(C)c3c(C#N)cnc(N)c23)ccc1NS(=O)(=O)C(F)F)c1ccc(F)cc1` [Compound 133, N-(4-{4-amino-7-cyano-1-methyl-1H-pyrazolo[4,3-c]pyridin-3-yl}-2-[(1S)-1-(4-fluorophenyl)ethoxy]phenyl)-1,1-difluoromethanesulfonamide]: the values for the Kd in experiment [1], in experiment [3] and in experiment [5] were below 0.001 µM, above 10 µM and above 10 µM, respectively. The IC50 in experiment [2] was above 10 µM; in experiment [4], 0.01 to 1 µM.
